Experiments:
[1] = Equilibrium solubility in water; assay type: physicochemical; conditions: H2O, room temperature, 24 hours; listed as p-Toluenesulfonate salt crystal form A-II
Description: The sample was centrifuged and filtered, and the filtrate was tested by HPLC.

[2] = Long-term stability study; assay type: physicochemical
Description: p-Toluenesulfonate salt crystal form A-II of the compound of formula (I) was placed at 25° C./60% RH for 6 months to investigate its long-term stability.

TRK-A = biological target: T1, TRK-A (Homo sapiens, UniProt P04629); assay: Kinase activity, Mobility Shift Assay; assay type: biochemical
T1 construct: purchased Carna 08-186
T1 sequence (P04629 33-796): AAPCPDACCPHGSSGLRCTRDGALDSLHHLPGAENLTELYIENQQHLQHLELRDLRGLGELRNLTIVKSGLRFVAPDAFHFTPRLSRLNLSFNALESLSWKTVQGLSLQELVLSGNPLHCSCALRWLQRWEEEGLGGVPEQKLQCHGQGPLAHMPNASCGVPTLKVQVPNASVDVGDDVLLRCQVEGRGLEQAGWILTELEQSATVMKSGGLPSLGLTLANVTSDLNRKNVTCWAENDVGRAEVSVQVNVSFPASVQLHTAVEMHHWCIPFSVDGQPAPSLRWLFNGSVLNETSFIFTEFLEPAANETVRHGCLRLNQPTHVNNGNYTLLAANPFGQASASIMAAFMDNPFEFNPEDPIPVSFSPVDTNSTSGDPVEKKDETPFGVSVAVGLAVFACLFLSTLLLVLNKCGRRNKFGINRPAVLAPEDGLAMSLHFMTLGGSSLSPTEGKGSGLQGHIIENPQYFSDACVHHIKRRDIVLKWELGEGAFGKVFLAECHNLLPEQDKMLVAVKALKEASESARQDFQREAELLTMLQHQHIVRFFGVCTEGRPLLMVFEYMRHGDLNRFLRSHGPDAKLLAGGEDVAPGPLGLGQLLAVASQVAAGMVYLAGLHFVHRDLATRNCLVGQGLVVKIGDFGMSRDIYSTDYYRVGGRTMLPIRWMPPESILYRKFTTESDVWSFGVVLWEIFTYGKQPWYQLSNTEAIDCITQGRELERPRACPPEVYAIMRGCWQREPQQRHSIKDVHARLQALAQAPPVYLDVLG
Description: (§1) The assay used the Mobility Shift Assay method. The starting concentration of the test substance was 2.5 μM, which was serially diluted 3-fold to give a total of 10 concentrations, in duplicate.
(§2) The p-toluenesulfonate salt of the free compound prepared in Example 2 was used as the test compound. The starting concentration of the test was 2.5 μM, and the concentration was prepared to 50 times, that is, 125 μM. 158 μl of 100% DMSO was added to the second well of a 96-well plate, and then 2 μl of 10 mM compound solution was added to prepare a 125 μM compound solution. 60 μl of 100% DMSO was added to the other wells. 30 μl of the compound was taken out from the second well and added to the third well, and the 3-fold dilution was made successively to give a total of 10 dilutions. Dilution instrument: automatic microwell pipette (Precision PRC384U)
(§3) • (1) 10 μl was taken out from each well of the 96-well plate with 50-fold compound concentration and transferred to another 96-well plate. 90 μl of kinase buffer was added to prepare a 5-fold compound concentration. • (2) 5 μl was taken out from the 96-well plate with 5-fold compound concentration and transferred to a 384-well reaction plate. For example, the compound in well A1 of the 96-well plate was transferred to wells A1 and A2 of the 384-well plate, the compound in well A2 of the 96-well plate was transferred to wells A3 and A4 of the 384-well plate, and so on.
(§4) Kinase was added to 1× kinase buffer to make a 2.5 times enzyme solution.
(§5) • (1) 5 μl of 5× compound dissolved in 10% DMSO was already in the 384-well reaction plate. • (2) 10 μl of 2.5× enzyme solution was added to the 384-well reaction plate and 10 μl of kinase buffer was added to the negative control wells. • (3) Incubation at room temperature for 10 minutes.
(§6) FAM-labeled peptide and ATP (ATP concentration see Appendix) were added to 1× kinase buffer to form a 2.5× substrate solution.
(§7) 10 μl of 2.5× substrate solution was added to the 384-well reaction plate and centrifuged at 1000 rpm for 1 minute.
(§8) • (1) The plate was incubated at 28° C. for 60 minutes (Biochemical incubator model: SPX-100B-Z). • (2) 30 μl of stop solution was added to the 384-well reaction plate to terminate the reaction and centrifuged at 1000 rpm for 1 minute.
(§9) The data of conversion rate was read on Caliper EZ Reader II.
(§10) • 1) The conversion rate data was copied from Caliper EZ Reader II. • 2) The conversion rate was converted to inhibition rate data, where max refers to the conversion rate of the DMSO control and min refers to the conversion rate of the no enzyme activity control.
(§11) [formula] • 3) Fitting of IC50 values using XLFit excel add-in version 5.4.0.8

RET = biological target: T2, RET (Homo sapiens, UniProt P07949); assay: Kinase activity, Mobility Shift Assay; assay type: biochemical
T2 construct: purchased Carna 08-159
T2 sequence (P07949 29-1114): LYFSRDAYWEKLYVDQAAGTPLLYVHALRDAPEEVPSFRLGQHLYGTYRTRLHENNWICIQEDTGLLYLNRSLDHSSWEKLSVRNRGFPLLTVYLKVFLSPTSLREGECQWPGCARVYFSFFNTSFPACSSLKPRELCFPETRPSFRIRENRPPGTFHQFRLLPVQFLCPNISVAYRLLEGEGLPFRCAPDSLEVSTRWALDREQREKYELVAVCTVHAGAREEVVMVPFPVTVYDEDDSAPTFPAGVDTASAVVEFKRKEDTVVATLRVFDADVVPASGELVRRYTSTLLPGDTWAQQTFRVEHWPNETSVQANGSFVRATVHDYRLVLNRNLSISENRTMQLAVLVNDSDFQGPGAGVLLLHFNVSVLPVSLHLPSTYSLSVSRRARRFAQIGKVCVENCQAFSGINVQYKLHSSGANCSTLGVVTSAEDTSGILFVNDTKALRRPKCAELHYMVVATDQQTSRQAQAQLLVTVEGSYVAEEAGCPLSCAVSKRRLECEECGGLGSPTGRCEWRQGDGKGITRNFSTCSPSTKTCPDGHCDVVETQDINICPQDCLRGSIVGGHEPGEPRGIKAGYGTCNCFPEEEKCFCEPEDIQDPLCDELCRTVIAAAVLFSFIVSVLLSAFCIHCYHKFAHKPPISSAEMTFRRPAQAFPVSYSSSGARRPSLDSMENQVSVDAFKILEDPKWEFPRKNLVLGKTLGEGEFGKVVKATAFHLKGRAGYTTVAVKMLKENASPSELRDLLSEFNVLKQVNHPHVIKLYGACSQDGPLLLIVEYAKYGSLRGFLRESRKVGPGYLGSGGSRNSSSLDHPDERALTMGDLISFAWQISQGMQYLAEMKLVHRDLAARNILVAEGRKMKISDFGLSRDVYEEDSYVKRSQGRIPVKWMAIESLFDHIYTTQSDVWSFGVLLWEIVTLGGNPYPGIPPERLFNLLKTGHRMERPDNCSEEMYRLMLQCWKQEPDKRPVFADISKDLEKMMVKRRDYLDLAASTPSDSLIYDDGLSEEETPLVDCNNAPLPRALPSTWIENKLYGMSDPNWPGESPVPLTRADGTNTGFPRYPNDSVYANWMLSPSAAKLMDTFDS
Description: as §1, §2, §3, §4, §5, §6, §7, §8, §9, §10, §11

KIT = biological target: T3, KIT (Homo sapiens, UniProt P10721); assay: Kinase activity, Mobility Shift Assay; assay type: biochemical
T3 construct: purchased eurofins 14-559M
Description: as §1, §2, §3, §4, §5, §6, §7, §8, §9, §10, §11

PDGFRa = biological target: T4, PDGFRa (Homo sapiens, UniProt P16234); assay: Kinase activity, Mobility Shift Assay; assay type: biochemical
T4 construct: purchased BPS 40260
T4 sequence (P16234 24-1089): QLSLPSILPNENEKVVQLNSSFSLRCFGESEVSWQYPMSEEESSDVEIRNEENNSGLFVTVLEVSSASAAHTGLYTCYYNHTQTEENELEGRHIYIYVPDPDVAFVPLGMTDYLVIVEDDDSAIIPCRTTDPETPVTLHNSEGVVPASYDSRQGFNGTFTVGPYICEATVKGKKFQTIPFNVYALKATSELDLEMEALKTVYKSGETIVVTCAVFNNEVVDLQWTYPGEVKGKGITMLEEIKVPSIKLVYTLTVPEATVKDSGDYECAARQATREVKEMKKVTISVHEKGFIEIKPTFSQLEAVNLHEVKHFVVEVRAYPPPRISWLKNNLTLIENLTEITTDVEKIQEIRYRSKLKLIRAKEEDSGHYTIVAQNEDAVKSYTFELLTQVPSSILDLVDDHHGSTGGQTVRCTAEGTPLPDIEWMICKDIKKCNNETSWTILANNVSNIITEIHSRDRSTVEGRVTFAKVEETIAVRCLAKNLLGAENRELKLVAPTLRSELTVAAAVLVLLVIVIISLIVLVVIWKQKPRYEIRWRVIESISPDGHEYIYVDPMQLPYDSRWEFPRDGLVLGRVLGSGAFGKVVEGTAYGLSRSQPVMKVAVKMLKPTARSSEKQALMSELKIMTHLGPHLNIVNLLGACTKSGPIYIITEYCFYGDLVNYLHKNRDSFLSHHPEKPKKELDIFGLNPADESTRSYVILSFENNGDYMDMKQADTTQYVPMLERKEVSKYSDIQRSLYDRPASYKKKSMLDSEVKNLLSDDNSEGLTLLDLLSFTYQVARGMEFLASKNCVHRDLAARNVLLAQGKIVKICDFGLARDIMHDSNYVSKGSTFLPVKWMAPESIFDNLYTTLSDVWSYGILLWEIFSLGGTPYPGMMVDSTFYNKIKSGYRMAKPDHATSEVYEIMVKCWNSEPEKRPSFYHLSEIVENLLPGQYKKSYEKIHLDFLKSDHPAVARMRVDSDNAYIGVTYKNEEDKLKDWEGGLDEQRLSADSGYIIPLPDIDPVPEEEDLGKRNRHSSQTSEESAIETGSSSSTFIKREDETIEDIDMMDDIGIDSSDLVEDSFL
Description: as §1, §2, §3, §4, §5, §6, §7, §8, §9, §10, §11

TRK-B = biological target: T5, TRK-B (Homo sapiens, UniProt Q16620); assay: Kinase activity, Mobility Shift Assay; assay type: biochemical
T5 construct: purchased Carna 08-187
T5 sequence (Q16620 32-822): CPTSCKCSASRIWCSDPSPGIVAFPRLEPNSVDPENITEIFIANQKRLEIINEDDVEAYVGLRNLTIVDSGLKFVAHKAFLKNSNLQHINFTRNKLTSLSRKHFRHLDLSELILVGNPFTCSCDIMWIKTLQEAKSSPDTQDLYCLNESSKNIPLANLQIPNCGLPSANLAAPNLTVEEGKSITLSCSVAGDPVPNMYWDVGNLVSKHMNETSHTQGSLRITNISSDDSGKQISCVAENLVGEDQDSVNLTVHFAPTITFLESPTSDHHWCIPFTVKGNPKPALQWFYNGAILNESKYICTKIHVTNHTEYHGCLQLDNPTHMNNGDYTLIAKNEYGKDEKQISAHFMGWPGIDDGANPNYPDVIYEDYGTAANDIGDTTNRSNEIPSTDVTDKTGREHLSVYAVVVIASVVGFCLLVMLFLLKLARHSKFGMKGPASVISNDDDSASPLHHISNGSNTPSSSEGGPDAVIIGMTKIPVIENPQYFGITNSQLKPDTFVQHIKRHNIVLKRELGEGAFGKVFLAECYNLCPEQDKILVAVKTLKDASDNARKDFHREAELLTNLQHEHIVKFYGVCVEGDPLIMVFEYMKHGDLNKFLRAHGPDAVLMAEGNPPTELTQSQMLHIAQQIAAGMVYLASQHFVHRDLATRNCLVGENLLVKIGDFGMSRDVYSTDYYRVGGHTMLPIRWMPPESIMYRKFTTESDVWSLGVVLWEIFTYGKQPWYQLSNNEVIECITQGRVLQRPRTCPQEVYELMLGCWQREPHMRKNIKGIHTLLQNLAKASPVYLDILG
Description: as §1, §2, §3, §4, §5, §6, §7, §8, §9, §10, §11

KDR(VEGFR2) = biological target: T6, KDR(VEGFR2) (Homo sapiens, UniProt P35968); assay: Kinase activity, Mobility Shift Assay; assay type: biochemical
T6 construct: purchased Carna 08-191
T6 sequence (P35968 20-1356): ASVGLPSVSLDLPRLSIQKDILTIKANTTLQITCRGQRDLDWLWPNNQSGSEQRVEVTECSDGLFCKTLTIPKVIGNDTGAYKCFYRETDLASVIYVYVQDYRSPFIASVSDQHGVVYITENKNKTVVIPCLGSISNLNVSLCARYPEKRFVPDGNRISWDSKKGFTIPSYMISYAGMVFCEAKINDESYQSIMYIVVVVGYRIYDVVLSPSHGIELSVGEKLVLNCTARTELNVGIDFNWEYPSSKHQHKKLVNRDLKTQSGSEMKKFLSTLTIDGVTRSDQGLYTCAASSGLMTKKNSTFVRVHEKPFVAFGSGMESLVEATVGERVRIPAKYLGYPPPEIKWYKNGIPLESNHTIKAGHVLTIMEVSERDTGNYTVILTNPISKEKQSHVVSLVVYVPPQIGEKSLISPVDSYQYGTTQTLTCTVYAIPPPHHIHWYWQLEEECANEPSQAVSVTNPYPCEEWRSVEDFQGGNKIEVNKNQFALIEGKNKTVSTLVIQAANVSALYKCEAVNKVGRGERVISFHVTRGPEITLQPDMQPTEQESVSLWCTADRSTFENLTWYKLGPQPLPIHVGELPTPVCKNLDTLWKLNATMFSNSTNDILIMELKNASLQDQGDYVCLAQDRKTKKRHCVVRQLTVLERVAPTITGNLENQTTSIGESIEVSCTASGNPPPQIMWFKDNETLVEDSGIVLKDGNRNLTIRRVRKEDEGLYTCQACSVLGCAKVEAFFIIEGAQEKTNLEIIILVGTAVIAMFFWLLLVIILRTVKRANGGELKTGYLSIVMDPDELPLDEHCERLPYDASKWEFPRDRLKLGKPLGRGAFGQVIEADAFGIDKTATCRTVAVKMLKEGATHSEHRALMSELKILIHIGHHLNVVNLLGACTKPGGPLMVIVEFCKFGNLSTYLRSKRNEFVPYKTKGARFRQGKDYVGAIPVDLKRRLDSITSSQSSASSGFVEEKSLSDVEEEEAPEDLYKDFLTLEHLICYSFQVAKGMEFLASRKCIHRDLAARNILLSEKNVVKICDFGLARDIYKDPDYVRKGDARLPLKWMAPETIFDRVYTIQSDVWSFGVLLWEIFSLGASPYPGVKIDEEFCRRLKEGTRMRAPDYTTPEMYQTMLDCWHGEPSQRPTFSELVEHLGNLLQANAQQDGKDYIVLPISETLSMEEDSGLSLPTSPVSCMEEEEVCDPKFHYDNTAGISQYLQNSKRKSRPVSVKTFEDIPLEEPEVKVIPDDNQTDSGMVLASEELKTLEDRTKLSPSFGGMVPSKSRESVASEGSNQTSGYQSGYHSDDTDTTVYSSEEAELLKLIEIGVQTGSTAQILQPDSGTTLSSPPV
Description: as §1, §2, §3, §4, §5, §6, §7, §8, §9, §10, §11

MET = biological target: T7, MET (Homo sapiens, UniProt P08581); assay: Kinase activity, Mobility Shift Assay; assay type: biochemical
T7 construct: purchased Carna 08-151
Description: as §1, §2, §3, §4, §5, §6, §7, §8, §9, §10, §11

AXL = biological target: T8, AXL (Homo sapiens, UniProt P30530); assay: Kinase activity, Mobility Shift Assay; assay type: biochemical
T8 construct: purchased Carna 08-107
T8 sequence (P30530 26-894): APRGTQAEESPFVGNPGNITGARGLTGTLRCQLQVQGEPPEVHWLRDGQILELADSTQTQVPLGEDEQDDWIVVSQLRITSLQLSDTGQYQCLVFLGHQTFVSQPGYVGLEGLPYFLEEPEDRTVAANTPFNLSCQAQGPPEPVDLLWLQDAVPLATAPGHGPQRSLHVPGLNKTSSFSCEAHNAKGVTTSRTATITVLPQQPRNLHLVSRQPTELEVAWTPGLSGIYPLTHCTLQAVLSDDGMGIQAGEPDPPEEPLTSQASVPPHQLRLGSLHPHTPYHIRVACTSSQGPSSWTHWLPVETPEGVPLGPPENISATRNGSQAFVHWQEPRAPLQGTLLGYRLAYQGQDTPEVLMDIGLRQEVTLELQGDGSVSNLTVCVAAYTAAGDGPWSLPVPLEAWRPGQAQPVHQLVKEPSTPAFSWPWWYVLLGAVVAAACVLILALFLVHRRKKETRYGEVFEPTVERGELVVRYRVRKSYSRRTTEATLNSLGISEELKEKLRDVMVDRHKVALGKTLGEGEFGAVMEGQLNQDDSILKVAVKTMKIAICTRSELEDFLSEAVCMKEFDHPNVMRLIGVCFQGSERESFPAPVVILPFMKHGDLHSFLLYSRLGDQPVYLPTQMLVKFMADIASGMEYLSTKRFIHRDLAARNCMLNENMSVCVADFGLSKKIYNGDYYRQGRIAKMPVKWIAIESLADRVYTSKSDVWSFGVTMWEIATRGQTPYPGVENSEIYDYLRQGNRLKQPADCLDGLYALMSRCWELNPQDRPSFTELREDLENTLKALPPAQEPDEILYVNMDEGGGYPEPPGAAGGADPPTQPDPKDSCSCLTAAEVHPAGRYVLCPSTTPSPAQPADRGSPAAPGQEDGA
Description: as §1, §2, §3, §4, §5, §6, §7, §8, §9, §10, §11

[3] = 25° C./60% RH, simulating factory packaging, 3 months
[4] = 25° C./60% RH, simulating factory packaging, 6 months

O=C(Nc1ccc(F)cc1)C1(C(=O)Nc2ccc(Oc3ccnc4cc(OCCCN5CCOCC5)c5c(c34)OCCO5)c(F)c2)CC1 [Example 2, N-(3-fluoro-4-((5-(3-morpholinopropoxy)-2,3-dihydro-[1,4]dioxano[2,3-f]quinolin-10-yl)oxy)phenyl)-N-(4-fluorophenyl)cyclopropane-1,1-dicarboxamide]
Solubility (equilibrium) [1]: 5100 µg/mL | Appearance [2, 3]: Off-white | Content [2, 3]: 100.0% | Crystal form [2, 3]: No | Moisture [2, 3]: 0.31% | Total impurities [2, 3]: 0.38% | Appearance [2, 4]: Off-white | Content [2, 4]: 100.5% | Crystal form [2, 4]: No | Moisture [2, 4]: 0.59% | Total impurities [2, 4]: 0.36% | Appearance ([2]; Day 0): Off-white | Content ([2]; Day 0): 100.2% | Crystal form ([2]; Day 0): No | Moisture ([2]; Day 0): 0.53% | Total impurities ([2]; Day 0): 0.37% | inhibition of the activity of TRK-A (in words) (TRK-A): effectively inhibit | inhibition of the activity of RET (in words) (RET): effectively inhibit | inhibition of the activity of c-KIT (in words) (KIT): effectively inhibit | inhibition of the activity of PDGFRa (in words) (PDGFRa): effectively inhibit | inhibition of the activity of TRK-B (in words) (TRK-B): effectively inhibit | inhibition of the activity of VEGFR-2 (in words) (KDR(VEGFR2)): effectively inhibit | inhibition of the activity of c-MET (in words) (MET): effectively inhibit | inhibition of the activity of AXL (in words) (AXL): effectively inhibit
